{
  "source": "patent US20170112741A1",
  "about": "“AGENT FOR AMELIORATING SKIN SYMPTOM, HAIR GROWTH AGENT OR SLIMMING AGENT” (GOLDCREST MEDICINE INSTITUTE CO., LTD., priority 2014, published 2017)",
  "type_in_all_cases": "in vivo, human",
  "key": {"moles": {"tested_on": "moles", "assay": "Effect of oral cabergoline on 10 moles of the femoral region of the right leg", "details": "Jan. 20, 2014, after 7 months oral cabergoline; for Color and shape of mole 1, upper part of side area / Color and shape of mole 2, lower part of side area: Jun. 20, 2013: Black rectangle", "description": "10 moles were present within an area having a width of 10 cm and a length of 8 cm extending from the outer side to the front side of the femoral region of the right leg. After 7 months, the state of those 10 moles was observed and the effect of oral administration of cabergoline was investigated.\nFor the first 4 weeks from […], one tablet (0.25 mg) of carbegoline was administered on Monday and Thursday. The total dose over the 4 weeks was 2 mg. For the following 26 weeks, one tablet of cabergoline was administered on every Thursday. The total dose of cabergoline over the 7-month treatment period was calculated to be 8.5 mg."}, "seborrheic keratosis": {"tested_on": "seborrheic keratosis", "assay": "Treatment of seborrheic keratosis generated from senile plaque by oral cabergoline", "details": "patient A", "text": "Investigation was made for the treatment of seborrheic keratosis generated from senile plaque. On the back side of the wrist of the right hand of patient A, there was seborrheic keratosis with width of 15 mm×length of 10 mm, which had remained as a problem for 13 years. In summer, elevation of the skin of about 4 mm with blackish brown color occurred.\nFurthermore, 2 years ago, seborrheic keratosis with width of 13 mm×length of 9 mm was caused from senile plaque on the back of the right hand, and elevation of the skin of about 2 mm with dark brown color was recognized. […] Thus, it is recognized that the seborrheic keratosis with a short clinical history is more responsive to the treatment."}, "head hair / bald area": {"tested_on": "head hair / bald area", "assay": "Hair growth on the head of patient A, photographs before and after oral cabergoline", "text": "According to the photograph (1) of patient A (FIG. 1) taken at a restaurant during travel in Shonai region of Yamagata Prefecture on Sep. 16, 2010, the head of patient A from the upper forehead to the crown was quite bald. Only a small amount of hair was left right above the forehead. Patient A was […] at the time of taking the photo. Since the cabergoline administration was started on Jun. 20, 2013, patient A was […] at that time, which was 2 years and 9 months after taking the photograph (1), and thus, aging further progressed so that the hair became thinner and the hair loss progressed.\nThe image of the occipital region of patient A taken from the back side on Sep. 16, 2010, is shown in the photograph (2) (FIG. 2).\nIn the period from Jun. 20, 2013 (Thursday) to Jul. 15, 2013 (Monday), one tablet of 0.25 mg cabergoline was orally administered twice per week, on Monday and Thursday, and thus a total of 2 mg of cabergoline was administered over one month. From July 18, the administration of cabergoline was changed from two tablets per week to one tablet per week. The total dose of cabergoline administered from Jul. 18, 2013 to Jan. 20, 2014 was about 6 mg, and thus, the total amount of cabergoline administered after the start of administration was calculated to be 8 mg.\nImages of the frontal region and the occipital region of patient A taken on Feb. 27, 2014 are shown as photograph (3) (FIG. 3) and photograph (4) (FIG. 4), respectively."}, "[1]": {"assay": "Slimming effect of cabergoline 0.25 mg/week in patient A", "description": "Due to an illness, patient A had to undergo the cabergoline treatment from the end of June of year 2013, and for this reason, attempted to lose weight again. Since it was expected that the body weight would be gained back, the target value was set at 56.5 kg, and a long-term plan without any exercise or restricted diet was adopted. However, regular meals were taken and only the overeating was strictly avoided.\nMeanwhile, since cabergoline was administered at 0.25 mg/week for 3 months of the measurement period, the total dose of cabergoline was calculated to be 3 mg. […] In this regard, it is considered that no side effect would appear with administration of such a small amount."}, "[2]": {"details": "listed as novel skin treatment agent"}, "[3]": {"details": "Jun. 20, 2013: Dark brown circle"}, "[4]": {"details": "Feb. 27, 2014 vs Sep. 16, 2010, oral cabergoline since Jun. 20, 2013"}, "[5]": {"details": "patient A, 0.25 mg/week, November 14"}, "[6]": {"details": "patient A, 0.25 mg/week, November 28"}, "[7]": {"details": "patient A, 0.25 mg/week, October 3"}, "[8]": {"details": "patient A, 0.25 mg/week, October 17"}, "[9]": {"details": "patient A, 0.25 mg/week, October 31"}, "[10]": {"details": "patient A, 0.25 mg/week, Sep. 5, 2013 (start of measurement period)"}, "[11]": {"details": "patient A, 0.25 mg/week, September 19"}},
  "data": [
    {"compound": "C=CCN1C[C@H](C(=O)N(CCCN(C)C)C(=O)NCC)C[C@@H]2c3cccc4[nH]cc(c34)C[C@H]21", "note": "[cabergoline]", "values": [
      {"measurement": "Appearance of all 4 moles on the front area", "setting": "moles", "value": "turned into faint flesh colored, pigmented macules"},
      {"measurement": "Diameter of the 2 light brown circular moles sandwiching the red moles of the middle area", "setting": "moles", "value": 1, "unit": "mm"},
      {"measurement": "Diameter of the remaining 2 small front-area moles", "setting": "moles", "value": 1, "unit": "mm"},
      {"measurement": "Size change of the front-area moles of 4.5 mm and 3 mm", "setting": "moles", "value": "hardly shrunk"},
      {"measurement": "Appearance of mole 7, upper part of front area", "setting": "moles; Jun. 20, 2013: 3.3 × 3.1 Brown circle-like, cell continues: flesh color", "value": "Turned into weak pigmented macules having"},
      {"measurement": "Size change of mole 7, upper part of front area", "setting": "moles; Jun. 20, 2013: 3.3 × 3.1 mm", "value": "flesh color with almost no change in size"},
      {"measurement": "Color and shape of mole 1, upper part of side area", "setting": "moles", "value": "dark brown rectangular mole"},
      {"measurement": "Color and shape of mole 2, lower part of side area", "setting": "moles", "value": "faded light brown oval mole with an unclear border"},
      {"measurement": "Color and shape of mole 1, upper part of side area", "setting": "moles; [2]", "value": "Dark brown rectangle"},
      {"measurement": "Color and shape of mole 2, lower part of side area", "setting": "moles; [2]", "value": "Faint, light brown rectangle"},
      {"measurement": "Color and shape of mole 4, central left part of middle area", "setting": "moles; Jun. 20, 2013: Brown rectangle", "value": "Light red circle-like"},
      {"measurement": "Color and shape of mole 3, upper part of middle area", "setting": "moles; [3]", "value": "Faint, light brown circle"},
      {"measurement": "Color and shape of mole 6, lower part of middle area", "setting": "moles; [3]", "value": "Dark brown circle"},
      {"measurement": "Color and shape of mole 5, central right part of middle area", "setting": "moles; Jun. 20, 2013: Dark brown oval", "value": "Red circle-like"},
      {"measurement": "Color of seborrheic keratosis on back side of right wrist", "setting": "seborrheic keratosis; 13 years history, oral cabergoline over the last year", "value": "faded from blackish brown to brown"},
      {"measurement": "Color of seborrheic keratosis on the back of the right hand", "setting": "seborrheic keratosis; as of March 22, initially dark brown", "value": "faded to pale yellow brown"},
      {"measurement": "Elevation of the skin, seborrheic keratosis on back side of right wrist", "setting": "seborrheic keratosis; lesion width 15 mm×length 10 mm, 13 years history, elevation about 4 mm, oral cabergoline over the last year", "value": "became flattened"},
      {"measurement": "Bald area, frontal region of the head (photograph (3))", "setting": "head hair / bald area; [4]", "value": "clearly reduced"},
      {"measurement": "Bald area, region from the crown to the occipital region (photograph (4) vs (2))", "setting": "head hair / bald area; [4]", "value": "the bald area was reduced"},
      {"measurement": "Hairs in the region from the crown to the occipital region", "setting": "head hair / bald area; [4]", "value": "hairs were increased"},
      {"measurement": "Hair in the frontal region of the head (photograph (3))", "setting": "head hair / bald area; Feb. 27, 2014 vs Sep. 16, 2010, oral cabergoline since Jun. 20, 2013, about 8 mg in total by Jan. 20, 2014", "value": "short black hairs were found in the previously bald region"},
      {"measurement": "Hungry feeling", "setting": "[1]; patient A during weight loss under cabergoline", "value": "no hungry feeling"},
      {"measurement": "Waist size", "setting": "[1]; patient A under cabergoline, reduced from 91 cm at a maximum", "value": 83, "unit": "cm"},
      {"measurement": "Body weight course", "setting": "[1]; patient A under cabergoline, target value 56.5 kg, no exercise or restricted diet", "value": "steadily reduced to the target value"},
      {"measurement": "Obesity BMI", "setting": "[1]; patient A, 0.25 mg/week, December 12", "value": 24.0},
      {"measurement": "Body weight", "setting": "[1]; patient A, 0.25 mg/week, December 12 (15 weeks)", "value": 56.1, "unit": "kg"},
      {"measurement": "Weight loss", "setting": "[1]; patient A, 0.25 mg/week, December 12, since previous measurement", "value": 0.7, "unit": "kg"},
      {"measurement": "Total weight loss (%)", "setting": "[1]; patient A, 0.25 mg/week, December 12, vs Sep. 5, 2013", "value": "−10.0", "unit": "%"},
      {"measurement": "Body weight", "setting": "[1]; [5]", "value": 57.5, "unit": "kg"},
      {"measurement": "Obesity BMI", "setting": "[1]; [5]", "value": 24.6},
      {"measurement": "Weight loss", "setting": "[1]; patient A, 0.25 mg/week, November 14, since previous measurement", "value": 0.8, "unit": "kg"},
      {"measurement": "Total weight loss (%)", "setting": "[1]; patient A, 0.25 mg/week, November 14, vs Sep. 5, 2013", "value": "−7.7", "unit": "%"},
      {"measurement": "Body weight", "setting": "[1]; [6]", "value": 56.8, "unit": "kg"},
      {"measurement": "Obesity BMI", "setting": "[1]; [6]", "value": 24.3},
      {"measurement": "Weight loss", "setting": "[1]; patient A, 0.25 mg/week, November 28, since previous measurement", "value": 0.7, "unit": "kg"},
      {"measurement": "Total weight loss (%)", "setting": "[1]; patient A, 0.25 mg/week, November 28, vs Sep. 5, 2013", "value": "−8.9", "unit": "%"},
      {"measurement": "Body weight", "setting": "[1]; [7]", "value": 60.1, "unit": "kg"},
      {"measurement": "Obesity BMI", "setting": "[1]; [7]", "value": 25.7},
      {"measurement": "Weight loss", "setting": "[1]; patient A, 0.25 mg/week, October 3, since previous measurement", "value": 1.2, "unit": "kg"},
      {"measurement": "Total weight loss (%)", "setting": "[1]; patient A, 0.25 mg/week, October 3, vs Sep. 5, 2013", "value": "−3.5", "unit": "%"},
      {"measurement": "Body weight", "setting": "[1]; [8]", "value": 59.1, "unit": "kg"},
      {"measurement": "Obesity BMI", "setting": "[1]; [8]", "value": 25.2},
      {"measurement": "Weight loss", "setting": "[1]; patient A, 0.25 mg/week, October 17, since previous measurement", "value": 1.0, "unit": "kg"},
      {"measurement": "Total weight loss (%)", "setting": "[1]; patient A, 0.25 mg/week, October 17, vs Sep. 5, 2013", "value": "−5.1", "unit": "%"},
      {"measurement": "Body weight", "setting": "[1]; [9]", "value": 58.3, "unit": "kg"},
      {"measurement": "Obesity BMI", "setting": "[1]; [9]", "value": 24.9},
      {"measurement": "Weight loss", "setting": "[1]; patient A, 0.25 mg/week, October 31, since previous measurement", "value": 0.8, "unit": "kg"},
      {"measurement": "Total weight loss (%)", "setting": "[1]; patient A, 0.25 mg/week, October 31, vs Sep. 5, 2013", "value": "−6.4", "unit": "%"},
      {"measurement": "Body weight", "setting": "[1]; [10]", "value": 62.3, "unit": "kg"},
      {"measurement": "Obesity BMI", "setting": "[1]; [10]", "value": 26.6},
      {"measurement": "Body weight", "setting": "[1]; [11]", "value": 61.3, "unit": "kg"},
      {"measurement": "Obesity BMI", "setting": "[1]; [11]", "value": 26.2},
      {"measurement": "Weight loss", "setting": "[1]; patient A, 0.25 mg/week, September 19, since previous measurement", "value": 1.0, "unit": "kg"},
      {"measurement": "Total weight loss (%)", "setting": "[1]; patient A, 0.25 mg/week, September 19, vs Sep. 5, 2013", "value": "−1.6", "unit": "%"},
      {"measurement": "Time after which BMI was decreased to a normal level", "setting": "[1]; patient A, oral administration, normal BMI 21.5 to 24.9", "value": 8, "unit": "weeks"},
      {"measurement": "Body weight", "setting": "[1]; patient A, Mar. 14, 2015", "value": 54.2, "unit": "kg"},
      {"measurement": "Obesity BMI", "setting": "[1]; patient A, Mar. 14, 2015", "value": 23.2},
      {"measurement": "Weight loss", "setting": "[1]; patient A, Mar. 14, 2015, since previous measurement", "value": 1.9, "unit": "kg"},
      {"measurement": "Total weight loss (%)", "setting": "[1]; patient A, Mar. 14, 2015, vs Sep. 5, 2013", "value": "−13.0", "unit": "%"}
    ]}
  ]
}
